{"source": "patent US8669205B2", "about": "“Composition and method for controlling plant diseases” (Sumitomo Chemical Company, Limited, priority 2009, dated 2014)", "key": {"[1]": {"test_system": "Rhizoctonia damping-off pathogen (Rhizoctonial solani)", "assay": "Test Example 2: spray to the foot of rice, Rhizoctonia damping-off control", "assay_type": "in vivo", "details": "rice (Nipponbare), tolclofos-methyl 50 alone, 5 days", "protocol": "A plastic pot was filled with sandy soil and seeds of rice (Nipponbare) were sown on it, followed by cultivation in a greenhouse for 5 weeks. A wettable powder of the compound I was prepared by mixing 10 parts of the compound I, 35 parts of a mixture of white carbon and a polyoxyethylene alkyl ether sulfate ammonium salt (weight ratio of 1:1) and 55 parts of water, followed by grinding the mixture. A wettable powder of tolclofos-methyl was prepared by mixing 10 parts of […], 35 parts of a mixture of white carbon and a polyoxyethylene alkyl ether sulfate ammonium salt (weight ratio of 1:1) and 55 parts of water, followed by grinding the mixture. Each of the wettable powder thus prepared was diluted with water, respectively, followed by mixing together to prepare a mixed solution containing predetermined concentrations of the compound I and tolclofos-methyl. The mixed solution was sprayed to the foot of the rice. […] The occurrence of Rhizoctonia damping-off diseases was checked and the incidence of disease was calculated by Equation 3. […]\n(§1) In order to calculate a control value, the same test was conducted in which the plants had been treated with none of the test compounds and the incidence of disease was determined.\n(§2) The control value was calculated by the Equation 2 based on the incidence of disease thus determined. […]"}, "[2]": {"test_system": "Rhizoctonia damping-off pathogen (Rhizoctonial solani)", "assay": "Test Example 1: cucumber seed treatment, Rhizoctonia damping-off control", "assay_type": "in vivo", "details": "cucumber (Sagamihanjiro) seed treatment, 9 days", "protocol": "A DMSO solution of the compound I and a DMSO solution of tolclofos-methyl were respectively prepared. These solutions were mixed to prepare a DMSO solution containing predetermined concentrations of the compound I and tolclofos-methyl. Ten (10) μL of the DMSO solution and 1 g of cucumber (Sagamihanjiro) seeds were mixed by shaking in a 15-ml conical tube and then allowed to stand overnight to prepare treated seeds. A plastic pot was filled with sandy soil and the treated seeds were sown on it and then covered with sandy soil which had been mixed with a bran culture of Rhizoctonia damping-off pathogen (Rhizoctonial solani). The sown seeds were watered and then cultured in a greenhouse at 20 to 24° C. for 9 days. The occurrence of Rhizoctonia damping-off diseases was checked and the incidence of disease was calculated by Equation 1.\nFor comparison, a DMSO solution containing a predetermined concentration of tolclofos-methyl was prepared and subjected to the same test and then the incidence of disease was determined.\nas §1, §2"}}}
{"smiles": "COP(=S)(OC)Oc1c(Cl)cc(C)cc1Cl", "note": "[Tolclofos-methyl]", "values": [{"measurement": "Control value", "setting": "[1]", "result": 58}, {"measurement": "Control value", "setting": "[2]; tolclofos-methyl 10 g/100 kg seeds alone", "result": 38}, {"measurement": "Control value", "setting": "[2]; tolclofos-methyl 40 g/100 kg seeds alone", "result": 75}]}
